The values below come from ChEMBL document CHEMBL1201862, “PubChem BioAssay data set” (2004).

Some test systems named below: CAKI-1; CCRF-CEM; HOP-92; HT-29; MDA-MB-231; NCI-H23; NCI-H460; OVCAR-4; OVCAR-5; PC-3; RXF 393; SF-268; SF-295; SK-MEL-28; SN12C; SNB-19; TK-10; UACC-257; UO-31.
Test in all cases: NCI anticancer screen, dose series, 48 h

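Values below derive from 48-hour exposures of cells grown in 96-well plates, with endpoints linearly interpolated between the two concentrations bracketing the appropriate inhibition level. GI50 = concentration required for 50% inhibition of growth.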 Activity calls are given as the source filed them. Cut-off read from the data, not from the text of the source: active = GI50 up to about 1.1 µM and inactive = higher. Where a SMILES comes first, the peptide text is derived from it. [ ]: non-standard residue; d: D form. The star is where a group is joined. Bn2Val = CC(C)[C@@H](C(=O)*)N(Cc1ccccc1)Cc1ccccc1; NH(4-F-benzyl) = Fc1ccc(CN*)cc1; NMeV = CN[C@H](C(=O)O)C(C)C; dNMeA = CN[C@H](C)C(=O)O

Take `C(=N\NC1=NCCCN1)/c1ccc(-c2cn3cc(/C=N/NC4=NCCCN4)ccc3n2)cc1`: the GI50 in the assay with CAKI-1 was 37 µM (inactive); with CCRF-CEM, > 41.9 µM (inactive); in the assay with HOP-92, 59 µM (inactive); with HT-29, 29.3 µM (inactive); in the assay with MDA-MB-231, > 72.6 µM (inactive); in the assay on NCI-H23 it was > 100 µM (inactive). The GI50 is 7.23 µM (inactive) in the assay with NCI-H460; > 100 µM (inactive) in the assay on OVCAR-4; > 100 µM (inactive) in the assay on OVCAR-5; > 40.1 µM (inactive) with PC-3; 61.1 µM (inactive) in the assay with RXF 393; > 100 µM (inactive) in the assay with SF-268. Further, the GI50 in the assay on SF-295, with SK-MEL-28, in the assay on SN12C, with SNB-19, in the assay on TK-10 and with UACC-257 was > 100 µM (inactive) each time. The GI50 with UO-31 was > 100 µM (inactive).

Consider `CC(C)[C@H](NC(=O)[C@H](C(C)C)N(Cc1ccccc1)Cc1ccccc1)C(=O)N(C)[C@H](C(=O)N1CCC[C@H]1C(=O)N(C)[C@H](C)C(=O)NCc1ccc(F)cc1)C(C)C` (Bn2Val-V[NMeV]P[dNMeA]-{NH(4-F-benzyl)}), for which the GI50 in the assay with CAKI-1 is 5.13 µM (inactive); in the assay on CCRF-CEM, 3.65 µM (inactive); with HOP-92 it was 2.97 µM (inactive); in the assay on HT-29, 1.95 µM (inactive); in the assay with MDA-MB-231 it was 3.55 µM (inactive); in the assay on NCI-H23, 3.82 µM (inactive). For the same molecule, the GI50 is 4 µM (inactive) in the assay on NCI-H460; 4.28 µM (inactive) in the assay on OVCAR-4; 3.59 µM (inactive) in the assay with OVCAR-5; 3.18 µM (inactive) in the assay with PC-3; 2.34 µM (inactive) in the assay with RXF 393; 3.19 µM (inactive) in the assay with SF-268. In addition, the GI50 in the assay with SF-295 is 3.44 µM (inactive); in the assay on SK-MEL-28 it was 7.29 µM (inactive); with SN12C it was 3.15 µM (inactive); in the assay with SNB-19, 4.88 µM (inactive); with TK-10 it was 5.48 µM (inactive); in the assay on UACC-257 it was 5.19 µM (inactive). The GI50 with UO-31 is 2.19 µM (inactive).

As for `CC(C)Cn1cnc2c(NCC(C)O)nc3ccccc3c21` (stereo not given), the GI50 in the assay with CAKI-1 was 66.4 µM (inactive); in the assay on CCRF-CEM, > 100 µM (inactive); with HOP-92, 27.9 µM (inactive); in the assay with HT-29 it was 36.6 µM (inactive); with MDA-MB-231 it was > 100 µM (inactive); in the assay on NCI-H23 it was > 100 µM (inactive). For the same molecule, the GI50 in the assay on NCI-H460 was > 100 µM (inactive); in the assay with OVCAR-4, > 100 µM (inactive); in the assay with OVCAR-5 it was > 100 µM (inactive); in the assay on PC-3, 87.7 µM (inactive); in the assay with RXF 393, > 100 µM (inactive); in the assay on SF-268, > 100 µM (inactive). The GI50 is > 100 µM (inactive) in the assay with SF-295; > 100 µM (inactive) in the assay on SK-MEL-28; > 100 µM (inactive) in the assay with SN12C; > 100 µM (inactive) in the assay on SNB-19; 91.4 µM (inactive) in the assay with TK-10; > 100 µM (inactive) in the assay on UACC-257. Also, in the assay on UO-31, the GI50 was 38.9 µM (inactive).

For `COc1ccc(CNC(=O)[C@H](Cc2ccc(O)cn2)NC(C)=O)cc1OC`, the GI50 with CAKI-1, in the assay on CCRF-CEM, in the assay with HOP-92, with HT-29, in the assay with MDA-MB-231 and in the assay on NCI-H23 was > 100 µM (inactive) each time. Moreover, the GI50 was > 100 µM (inactive) with NCI-H460; > 100 µM (inactive) in the assay with OVCAR-4; > 100 µM (inactive) in the assay on OVCAR-5; > 100 µM (inactive) with PC-3; > 100 µM (inactive) in the assay on RXF 393; > 90.6 µM (inactive) in the assay with SF-268. Moreover, the GI50 in the assay on SF-295, in the assay on SK-MEL-28, in the assay on SN12C, with SNB-19, with TK-10 and with UACC-257 was > 100 µM (inactive) in each case. Also, the GI50 in the assay with UO-31 is > 100 µM (inactive).

Consider `CCN(CC)Cc1nc(C2CCC([N+](=O)[O-])O2)no1` (stereo not given), for which the GI50 in the assay on CAKI-1 is 72.8 µM (inactive); in the assay on CCRF-CEM, 31.9 µM (inactive); with HOP-92, > 100 µM (inactive); in the assay on HT-29 it was 17 µM (inactive); in the assay on MDA-MB-231, 26.7 µM (inactive); with NCI-H23, 19.3 µM (inactive). Further, the GI50 in the assay on NCI-H460 is 20.5 µM (inactive); in the assay with OVCAR-4, 77.3 µM (inactive); in the assay on OVCAR-5, 29.3 µM (inactive); with PC-3, 27.3 µM (inactive); in the assay with RXF 393, 31 µM (inactive); in the assay on SF-268, 24.5 µM (inactive). For the same molecule, the GI50 with SF-295 is 30.1 µM (inactive); with SK-MEL-28, 20.3 µM (inactive); in the assay on SN12C it was 47.1 µM (inactive); with SNB-19 it was 28.6 µM (inactive); in the assay on TK-10, > 100 µM (inactive); in the assay with UACC-257, 19.9 µM (inactive). Besides, the GI50 with UO-31 is > 100 µM (inactive).

Take `OC1c2ccccc2CC12Cc1ccccc1C2` (stereo not given): the GI50 with CAKI-1 is > 100 µM (inactive); with CCRF-CEM it was > 100 µM (inactive); with HOP-92, 64 µM (inactive); in the assay with HT-29, 86.7 µM (inactive); in the assay with MDA-MB-231, > 100 µM (inactive); in the assay with NCI-H23 it was > 100 µM (inactive). Besides, the GI50 was > 100 µM (inactive) in the assay on NCI-H460; > 100 µM (inactive) in the assay with OVCAR-4; > 100 µM (inactive) in the assay on OVCAR-5; > 100 µM (inactive) in the assay on PC-3; 48.3 µM (inactive) in the assay with RXF 393; > 100 µM (inactive) in the assay with SF-268. Moreover, the GI50 is > 100 µM (inactive) in the assay with SF-295; > 100 µM (inactive) in the assay on SK-MEL-28; 78.9 µM (inactive) with SN12C; > 100 µM (inactive) in the assay on SNB-19; > 100 µM (inactive) in the assay with TK-10; 44.9 µM (inactive) with UACC-257. Also, the GI50 with UO-31 is 94.2 µM (inactive).

On to `O=C(O)c1cc2ccccc2c(O)c1O`, for which the GI50 with CAKI-1 is 17.3 µM (inactive); with CCRF-CEM, 5.75 µM (inactive); with HOP-92, > 40.1 µM (inactive); with HT-29 it was 23.2 µM (inactive); in the assay with MDA-MB-231, 17.7 µM (inactive); in the assay on NCI-H23, 7.29 µM (inactive). Moreover, the GI50 is 22.9 µM (inactive) with NCI-H460; 19 µM (inactive) in the assay on OVCAR-4; 16.9 µM (inactive) in the assay with OVCAR-5; 12.8 µM (inactive) with PC-3; 17.3 µM (inactive) with RXF 393; 17.2 µM (inactive) with SF-268. Also, the GI50 with SF-295 was 15.3 µM (inactive); in the assay on SK-MEL-28 it was 7.03 µM (inactive); with SN12C, 16.6 µM (inactive); in the assay on SNB-19, 17.9 µM (inactive); with TK-10, 21.9 µM (inactive); in the assay on UACC-257, 9.68 µM (inactive). The GI50 with UO-31 was 20.5 µM (inactive).

Consider `C=CCCCCOC1C=CC(OC(C)=O)C(COC(C)=O)O1` (stereo not given), for which the GI50 in the assay on CAKI-1, in the assay with CCRF-CEM, in the assay on HOP-92, in the assay on HT-29, with MDA-MB-231 and with NCI-H23 was > 100 µM (inactive) in each case. Further, the GI50 in the assay on NCI-H460, in the assay with OVCAR-4, in the assay with OVCAR-5, with PC-3, in the assay on RXF 393 and in the assay on SF-268 was > 100 µM (inactive) in each case. Further, the GI50 in the assay on SF-295, in the assay on SK-MEL-28, in the assay with SN12C, in the assay on SNB-19, with TK-10 and with UACC-257 was > 100 µM (inactive) in each case. For the same molecule, the GI50 in the assay with UO-31 is > 100 µM (inactive).

As to `c1ccc(/N=c2/sc3ccccc3s/c2=N/c2ccccc2)cc1`, the GI50 in the assay on CAKI-1 is 1.87 µM (inactive); in the assay on CCRF-CEM it was > 100 µM (inactive); with HOP-92 it was 2 µM (inactive); in the assay with HT-29 it was 2.08 µM (inactive); in the assay with MDA-MB-231, 2.21 µM (inactive); in the assay on NCI-H23, 1.96 µM (inactive). In addition, the GI50 is 1.96 µM (inactive) in the assay with NCI-H460; 2.02 µM (inactive) in the assay on OVCAR-4; 2.11 µM (inactive) in the assay with OVCAR-5; 12.8 µM (inactive) in the assay on PC-3; 1.82 µM (inactive) in the assay on RXF 393; 3.12 µM (inactive) with SF-268. Also, the GI50 in the assay on SF-295 is 3.76 µM (inactive); in the assay on SK-MEL-28 it was 1.81 µM (inactive); with SN12C it was 1.75 µM (inactive); with SNB-19, 4.71 µM (inactive); in the assay on TK-10, 4.08 µM (inactive); in the assay with UACC-257, 3.72 µM (inactive). In addition, the GI50 in the assay with UO-31 was 1.58 µM (inactive).

Take `Nc1ncnc2c1nc(Cl)n2C1OC(CO)C(O)C1O` (stereo not given): the GI50 was 1.21 µM (inactive) with CAKI-1; 0.607 µM (active) in the assay with CCRF-CEM; 9.08 µM (inactive) in the assay on HOP-92; 0.649 µM (active) in the assay with HT-29; 6.95 µM (inactive) with MDA-MB-231; 1.95 µM (inactive) in the assay with NCI-H23. Besides, the GI50 in the assay on NCI-H460 is 0.414 µM (active); with OVCAR-4, 5.07 µM (inactive); in the assay on OVCAR-5 it was 2.28 µM (inactive); in the assay on PC-3, 1.44 µM (inactive); with RXF 393 it was 0.213 µM (active); with SF-268, 12.2 µM (inactive). The GI50 with SF-295 was 5.11 µM (inactive); with SK-MEL-28 it was > 45.5 µM (inactive); in the assay with SN12C, 1.88 µM (inactive); in the assay on SNB-19, 22.1 µM (inactive); in the assay on TK-10, 0.502 µM (active); in the assay with UACC-257, 4.48 µM (inactive). The GI50 with UO-31 is 0.906 µM (active).
